Measured values: PubChem BioAssay (NCI)
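Grown in 96-well plates, cells were treated for 48 hours with each compound at five concentrations. Insufficient inhibition: endpoint recorded as highest concentration tested. Definition used: TGI = concentration required for complete inhibition of growth.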

How the values were obtained:
Assay in all cases: NCI-60 cell line screen, 48 h
BT-549 breast = system: BT-549 breast
RPMI-8226 leukemia = system: RPMI-8226 leukemia
UACC-62 melanoma = system: UACC-62 melanoma
MOLT-4 leukemia = system: MOLT-4 leukemia
KM12 colon = system: KM12 colon
SF-268 CNS = system: SF-268 CNS
HOP-92 NSCLC = system: HOP-92 NSCLC
TK-10 renal = system: TK-10 renal
MDA-N = system: MDA-N
OVCAR-5 ovarian = system: OVCAR-5 ovarian

Row | Structure (SMILES) | TGI (BT-549 breast) [µM] | TGI (RPMI-8226 leukemia) [µM] | TGI (UACC-62 melanoma) [µM] | TGI (MOLT-4 leukemia) [µM] | TGI (KM12 colon) [µM] | TGI (SF-268 CNS) [µM] | TGI (HOP-92 NSCLC) [µM] | TGI (TK-10 renal) [µM] | TGI (MDA-N) [µM] | TGI (OVCAR-5 ovarian) [µM]
1 | COc1ccc(NC(C)=O)cc1N1C(=O)/C(=C\c2ccccc2)SC1c1cc(OC)c(OC)c(OC)c1 (stereo not given) | > 100 | > 100 | > 100 | > 100 | 35.8 | 43.9 | > 100 | > 100 | > 100 | 
2 | Clc1cc(Cl)c2cc3cccc[n+]3cc2c1Cl | 23.3 | 45.7 | 32.7 | 31.3 |  | 26.5 | 21.7 | 40.2 | 32.8 | 38.7
3 | OC[C@H]1NC[C@@H](O)[C@@H](O)[C@H]1O | > 100 | > 100 | > 100 | > 100 | > 100 |  | > 100 | > 100 | > 100 | > 100
4 | COc1ccc(-c2nc3c(nc2-c2ccc(OC)cc2)C(N)=NS(=O)(=O)N3)cc1 |  | > 100 | > 100 | > 100 | > 100 | > 100 |  | > 100 |  | > 100
5 | CSc1nc(CO)c(CO)n1C |  | > 100 | > 100 | > 100 | > 100 | > 100 | > 100 |  |  | > 100
6 | CCOC(=O)Cn1c2ccc(Br)cc2c2nc3ccccc3nc21 |  | > 100 | > 100 | > 100 | > 100 | > 100 | > 100 | > 100 | > 100 | > 100
7 | O=C(NC(Cc1ccc(Br)cc1)C(=O)O)c1ccc(I)cc1 (stereo not given) |  | > 100 | > 100 | > 100 | > 100 | > 100 | > 100 |  |  | > 100
8 | CCN1c2cc(Br)cc3[nH]c(=O)n(c23)CCC1C (stereo not given) | 31.2 | > 100 | 24.6 | 65.5 | 47.4 | 46.1 | 9.25 | 49.2 | 19.2 | 49.9
9 | CC(=O)Nc1cccc(N2C(=O)/C(=C\c3cccc(Oc4ccccc4)c3)S(=O)(=O)C2c2ccccc2)c1 (stereo not given) | > 100 | > 100 | > 100 | 62.6 | > 100 |  | > 100 | > 100 | > 100 | > 100
10 | CN(Cc1cn(O)c2nc(=N)nc(N)c-2n1)c1ccc(C(=O)NC23CC4CC(CC(C4)C2)C3)cc1 | 79.1 | > 100 | > 100 | > 100 | > 100 | 81.4 |  | > 100 | > 100 | > 100
